Data from patent US12344587B2, “Synthetic retinoids for use in RAR activation” (UNIVERSITY OF DURHAM, priority 2019, dated 2025).

Assays:
SH-SY5Y cells = assay: Induction of neurite outgrowth; type: cell-based; conditions: 10 nM, 5 days; for fold induction at 0.01 µM: Homo sapiens, 120 h, read-out: Neurite Outgrowth Fold increase
Procedure: SY—SY5Y cells were plated at 10,000 cells/well in 12-well plates containing acid-treated/poly-L-lysine-coated coverslips. After 24 hours, each retinoid was added to the medium at a concentration of 10 nM and the plates were incubated for 5 days. After retinoid treatment, SH-SY5Y cells on coverslips were washed twice in PBS, fixed in 4% paraformaldehyde (PFA) for 20 minutes at room temperature, and washed twice with PBS.
For immunocytochemical staining of neurites, cells on coverslips were washed three times in PBS, and incubated in blocking solution (10% donkey serum and 0.1% triton X-100 in PBS) for 1 hour at room temperature. Cells were then labelled by incubation overnight at 4° C. with β-III tubulin primary antibody (Sigma-Aldrich) diluted 1:1000 in blocking buffer. Following incubation overnight, cells were washed three times with PBS containing 0.1% Triton X-100 solution (PBST) before incubation with anti-mouse monoclonal secondary antibody (1:300 in PBST; Jackson Immunoresearch) for 2 hours at room temperature. Finally, after three washes in PBST and a final wash in PBS, the coverslips were mounted on slides and stored at 4° C.
ImageJ software with the NeuronJ plugin was used to quantify neurite outgrowth on stained cells. For each experiment, 10 different randomly selected images were taken from each cover slip using a Nikon Eclipse E400 fluorescence microscope. Each image was converted into an 8-bit image (necessary for the NeuronJ plugin) and optimised with the brightness and contrast tool in GIMP (GNU Image Manipulation Program). For each image, individual traces were drawn for each clearly-identifiable neurite using the tracing tool in the NeuronJ plugin. Neurite length was measured in pixels and transformed into the corresponding length in μm depending on the magnification used. The average neurite length for each image was calculated by dividing total neurite length by the total number of neurites per image. Ten images per cover slip were measured and the mean calculated for the coverslip overall. Coverslips were in triplicate for each retinoid and concentration.

[1] = tested on: rat mixed primary neuronal/glial cultures; assay: Regulation of Alzheimer's disease related genes (qPCR); type: cell-based; conditions: 10 nM retinoid 24 hours after 1 μg/ml lipopolysaccharide 6 hours
Procedure: To examine the influence retinoids may have on the expression of genes involved in Alzheimer's disease, the expression of a group of Alzheimer's-related genes in rat mixed primary neuronal/glial cultures was assessed following retinoid treatment.
Approximately 300,000 rat neuronal/glial cells were treated first with 1 μg/ml lipopolysaccharide (Sigma-Aldrich) for 6 hours to induce inflammation. Following the induction of inflammation, cells were treated with 10 nM retinoids for 24 hours. […] Following treatment, RNA was extracted from the treated cells for qPCR analysis.
Total RNA was extracted using a Qiagen RNeasy mini kit (CAT # 74104, Qiagen) according to the manufacturer's protocol. Briefly, cell and brain tissue samples were homogenized in 350 μl and 1200 μl of RLT buffer mixed with β-ME (1 ml buffer: 10 μl β-ME ratio) respectively. Then, samples were centrifuged for 3 min at 13,000 rpm. The supernatant was first mixed with 70% ethanol at a 1:1 volume ratio (CAT # E7023, Sigma-Aldrich) before transferring it to a spin column placed in a collection tube. The samples were centrifuged for 1 min at 10,000 rpm to bind RNA to the membrane of the spin column.
For the on-column DNase digestion, the samples in the columns were washed with 350 μl RW1 buffer and centrifuged at 10,000 rpm for 1 min. Then, 80 μl of the DNase mixture (10 μl DNase enzyme with 70 μl RDD buffer; CAT # 79254, Qiagen) was added above each sample. Samples were incubated at room temperature for 15 min before adding 350 μl RW1 buffer. Samples were centrifuged at 10,000 rpm for 1 min.
Afterwards, 500 μl of RPE buffer (mixed with 100% ethanol at 1:4 ratio) was added above the samples. Samples were centrifuged for 1 min at 10,000 rpm (the step was repeated 2 times). The spin columns were centrifuged again at 13,000 rpm for 1 min to dry the membranes. The spin columns were removed from the collection tubes and placed inside another 1.5 ml RNase free collection tubes. The RNA was eluted by adding 30 μl of RNase free water directly to the spin column membrane. The samples were incubated 5 min at room temperature before spinning them for 1 min at 10,000 rpm.
RNA concentration was measured using a NanoDrop™ 2000c spectrophotometer (Thermo Fisher Scientific). The instrument was calibrated using the RNase free water used to elute the RNA as a blank and 2 μl was used of each RNA sample. RNA samples were stored in a −70° C. freezer to minimize RNA degradation.
qPCR reactions were performed using PerfeCTa SYBR Green SuperMix (CAT # 733-1246, VWR). 10 μl of reaction mix was added to each well of a 384-well plate (CAT # 04729749001, Roche) in triplicate. Each reaction contained 2 μl of 4 times diluted cDNA template, 5 μl 2×SYBR green mix and 250 nM primers.
Primers were designed using Primer-BLAST with melting temperatures of about 60° C. Before using them in qPCR, the primers were checked for specificity by PCR and the PCR products were sent for sequencing.
Standard curves (made using 5-fold dilutions of the stock cDNA) and blank controls were run for all sets of primers tested in qPCR. The plates were then sealed and centrifuged briefly to ensure all the reagents were at the base of the wells. The plates were run on a Roche LightCycler 480 that was programmed to hold the plate at 95° C. for 5 min. The qPCR then ran for 45 cycles of 95° C. for 15 seconds (s), 60° C. for 15 s and 72° C. for 15 s. Afterwards, the melting curve was obtained by running the plate at 95° C. for 5 s followed by 58° C. for 1 min.
Results were analysed using the delta delta CT method within the LightCycler 480 1.5 software. The expression of genes of interest was normalized to the appropriate reference gene according to each experiment.

For `CC1(C)CCC(C)(C)c2cc(C#Cc3ccc(C(=O)O)cc3F)ccc21` [DC526, 3-Fluoro-4-[2-(5,5,8,8-tetramethyl-5,6,7,8-tetrahydronaphthalen-2-yl)ethynyl]benzoic acid], the “Average neurite length compared to cells treated with ATRA” value (SH-SY5Y cells) was “significantly larger average neurite length”, the fold induction at 0.01 µM (SH-SY5Y cells) was 2.1 and the “Expression of inflammation genes (Ccl5, TNFα and Nos2)” value (from here on “Expression of inflammation genes”) [1] was “downregulated”. The “Expression of neuroprotection genes (Abca1, Abcg1, Igf1 and Igf2)” value (“Expression of neuroprotection genes” for short) [1] was “upregulated” and the “Expression of non-amyloidogenic pathway genes (Nep, Ide and Adam10)” value [1] was “upregulated”.
With `CC1(C)CCC(C)(C)c2cc(C#Cc3ccc(C(=O)O)nc3)ccc21` [DC528, 5-[2-(5,5,8,8-tetramethyl-5,6,7,8-tetrahydronaphthalen-2-yl)ethynyl]pyridine-2-carboxylic acid] the “Average neurite length compared to cells treated with ATRA” value (SH-SY5Y cells) was “significantly larger average neurite length”, the fold induction at 0.01 µM (SH-SY5Y cells) was 2.2 and the “Expression of inflammation genes” value [1] was “downregulated”. The “Expression of neuroprotection genes” value [1] was “upregulated” and the “Expression of non-amyloidogenic pathway genes (Nep, Ide and Adam10)” value [1] was “upregulated”.
For `CC1(C)CCC(C)(C)c2nc(C#Cc3ccc(C(=O)O)cc3)cnc21` [DC645, 4-[2-(5,5,8,8-Tetramethyl-5,6,7,8-tetrahydroquinoxalin-2-yl)ethynyl]benzoic acid], the “Average neurite length compared to cells treated with ATRA” value (SH-SY5Y cells) was “significantly larger average neurite length”, the fold induction at 0.01 µM (SH-SY5Y cells) was 2.3 and the “Expression of inflammation genes” value [1] was “downregulated”. The “Expression of neuroprotection genes” value [1] was “upregulated” and the “Expression of non-amyloidogenic pathway genes (Nep, Ide and Adam10)” value [1] was “upregulated”.
